Experimental data: PMC7802075 (ACS Infectious Diseases, 2020)
Read-outs that look alike come from different tables or passages of the source. Where a SMILES comes first, the peptide text is derived from it.

Molecular target: T1, LmjIPCS (inositol phosphorylceramide synthase from L. major) (Leishmania major, UniProt E9AFX2)
T1 sequence (E9AFX2 1-338): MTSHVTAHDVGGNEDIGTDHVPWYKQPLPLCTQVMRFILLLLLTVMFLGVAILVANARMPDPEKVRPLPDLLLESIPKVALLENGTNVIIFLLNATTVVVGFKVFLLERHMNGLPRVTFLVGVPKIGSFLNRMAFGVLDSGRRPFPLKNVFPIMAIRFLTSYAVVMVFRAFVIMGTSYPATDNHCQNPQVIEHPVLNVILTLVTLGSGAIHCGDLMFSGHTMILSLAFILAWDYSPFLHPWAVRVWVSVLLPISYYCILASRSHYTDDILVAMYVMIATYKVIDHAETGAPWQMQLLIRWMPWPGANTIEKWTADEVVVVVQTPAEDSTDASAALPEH
Test: biochemical
Assay type: biochemical
Design: inhibition: dose or concentration left out as unconfirmed
Settings: for inhibition at 20000 µM: read-out: 20mM inhibition LmjIPCS; for inhibition: read-out: inhibition LmjIPCS

[1] = screening of NINDS set, sheet Screen 1
[2] = NINDS set screen, single concentration printed as 20mM

For N=C(NCCC[C@H](N)C(=O)O)N[N+](=O)[O-] [N (g)-NITRO-L-ARGININE], the “20mM inhibition LmjIPCS” value was 1.68%.

NC(=O)N/N=C/c1ccc([N+](=O)[O-])o1 [NITROFURAZONE] showed an inhibition at 20000 µM of 14%.

In the case of Cc1cccc(Nc2ccccc2C(=O)O)c1C [MEFENAMIC ACID], the inhibition (NINDS set screen) was -9%.

For C[C@@H]1O[C@@H](O[C@H]2CC[C@]3(C=O)[C@H]4CC[C@]5(C)[C@@H](C6=CC(=O)OC6)CC[C@]5(O)[C@@H]4CC[C@]3(O)C2)[C@H](O)[C@H](O)[C@H]1O [CONVALLATOXIN], the inhibition at 20000 µM was 16%.

Molecule CO[C@H]1C[C@H](O[C@H]2[C@H](C)[C@@H](O[C@@H]3O[C@H](C)C[C@H](N(C)C)[C@H]3OC(C)=O)[C@@H](C)C[C@@]3(CO3)C(=O)[C@H](C)[C@@H](OC(C)=O)[C@@H](C)[C@@H](C)OC(=O)[C@@H]2C)O[C@@H](C)[C@@H]1OC(C)=O [TROLEANDOMYCIN] has an inhibition of 18%.

For C[C@]12CCC(=O)C=C1CC[C@@H]1[C@@H]2[C@@H](O)C[C@@]2(C)[C@H]1CC[C@]2(O)C(=O)COC(=O)CCC(=O)O [HYDROCORTISONE HEMISUCCINATE], the “20mM inhibition LmjIPCS” value (NINDS set screen, compound at 20mM (so in the source)) was 18%.

In the case of COc1ccc2c(c1)[C@]13CCCC[C@@H]1[C@H](C2)N(C)CC3 [DEXTROMETHORPHAN], the “20mM inhibition LmjIPCS” value was 64%.

Cc1[nH]ccc2c1[nH]c1cc(=O)ccc12 [HARMOL] gave an inhibition at 20000 µM of 15%.

In the case of O=C(O)c1cc([N+](=O)[O-])ccc1NCCCc1ccccc1 [5-NITRO-2-PHENYLPROPYLAMINOBENZOIC ACID], the “20mM inhibition LmjIPCS” value was 15%.

For O=c1cccc2n1C[C@@H]1CNC[C@H]2C1 [CYTISINE], the inhibition at 20000 µM was 9%.

CC(=O)Oc1ccc2c(c1)CCC1C2CC[C@]2(C)C(=O)CCC12 (stereo partly drawn) [ESTRONE ACETATE] was tested, and the inhibition [1] was 8.56%.

Work on CC(C)(Sc1cc(C(C)(C)C)c(O)c(C(C)(C)C)c1)Sc1cc(C(C)(C)C)c(O)c(C(C)(C)C)c1 [PROBUCOL] yielded an inhibition at 20000 µM of 25%.

With CC(=O)Nc1ccccc1 [ACETANILIDE] the inhibition at 20000 µM was 3.75%.

In the case of C[C@H]1C[C@H]2[C@@H]3CCC4=CC(=O)C=C[C@]4(C)[C@@]3(F)[C@@H](O)C[C@]2(C)[C@@]1(O)C(=O)CO [BETAMETHASONE], the “20mM inhibition LmjIPCS” value was 45%.

For Cc1c(N(C)C)c(=O)n(-c2ccccc2)n1C [AMINOPHENAZONE], the inhibition was -19%.

Nc1nc(/C(=C/CC(=O)O)C(=O)N[C@@H]2C(=O)N3C(C(=O)O)=CCS[C@H]23)cs1 [CEFTIBUTEN] showed an inhibition at 20000 µM of 18%.

For N[C@H](CO)Cc1ccccc1 [L-PHENYLALANINOL], the inhibition at 20000 µM was 24%.

For CN1C(=O)CCS(=O)(=O)C1c1ccc(Cl)cc1 (stereo not drawn) [CHLORMEZANONE], the inhibition at 20000 µM was -1.07%.

O=C1CCO1 [BETA-PROPIOLACTONE] was tested, and the “20mM inhibition LmjIPCS” value was 1.45%.

Molecule C=C(C)[C@@H]1CC[C@]2(C(=O)O)CC[C@]3(C)[C@H](CC[C@@H]4[C@@]5(C)CC[C@H](O)C(C)(C)[C@@H]5CC[C@]43C)[C@@H]12 [BETULINIC ACID] has an inhibition at 20000 µM of 21%.

Nc1ncnc2c1ncn2[C@@H]1O[C@H](CO)[C@@H](O)[C@@H]1O [VIDARABINE] was tested, and the inhibition was 10%.

With Nc1ccc(S(=O)(=O)Nc2nccs2)cc1 [SULFATHIAZOLE] the “20mM inhibition LmjIPCS” value [2] was 35%.

CAPREOMYCIN was tested, and the “20mM inhibition LmjIPCS” value [2] was 52%.

With CCC1(c2ccc(N)cc2)CCC(=O)NC1=O (stereo not drawn) [AMINOGLUTETHIMIDE] the “20mM inhibition LmjIPCS” value was 56%.

CC(C)[C@H](N)C(=O)N[C@@H](Cc1c[nH]c2ccccc12)C(=O)O [VALYLTRYPTOPHAN] (H-Val-Trp-OH) gave an inhibition [1] of 6%.

Molecule CCCCCCOc1ccccc1C(N)=O [EXALAMIDE] has an inhibition [1] of 8%.

Molecule COc1cccc(OC)c1C(=O)N[C@@H]1C(=O)N2[C@@H]1SC(C)(C)[C@@H]2C(=O)O [METHICILLIN] has an inhibition at 20000 µM of 17%.

For [O-][n+]1ccccc1S [PYRITHIONE ZINC], the inhibition at 20000 µM was 10%.

For CC(=O)N[C@@H](CCC(=O)O)C(=O)O [ACET[…]], the inhibition at 20000 µM was -20%.

In the case of Oc1c(Cl)cc(Cl)c2cccnc12 [CHLOROXINE], the “20mM inhibition LmjIPCS” value was 37%.

O=C1C=CC(=C(c2ccc(O)cc2)c2ccc(O)cc2)C=C1 [ROSOLIC ACID] gave an inhibition at 20000 µM of -11%.

With OCC(O)CN1CCN(c2ccccc2)CC1 (stereo not drawn) [DROPROPIZINE] the inhibition at 20000 µM was 18%.

N#C[C@H](O[C@@H]1O[C@H](CO[C@@H]2O[C@H](CO)[C@@H](O)[C@H](O)[C@H]2O)[C@@H](O)[C@H](O)[C@H]1O)c1ccccc1 [AMYGDALIN] was tested, and the inhibition at 20000 µM was -4%.

Work on O=c1cc(CO)occ1O [KOJIC ACID] yielded an inhibition of 11%.

For CN1C(=O)CC[C@H]1c1cccnc1 [COTININE], the “20mM inhibition LmjIPCS” value was 34%.

In the case of CN(C)C(=O)Oc1cccc([N+](C)(C)C)c1 [NEOSTIGMINE BROMIDE], the inhibition at 20000 µM was 20%.

CC(=O)OCC(=O)[C@@]1(O)CC[C@H]2[C@@H]3CCC4=CC(=O)C=C[C@]4(C)[C@H]3[C@@H](O)C[C@@]21C [PREDNISOLONE ACETATE] showed an inhibition at 20000 µM of 25%.

For NCCc1cc(O)c(O)cc1O [OXIDOPAMINE], the “20mM inhibition LmjIPCS” value was 65%.

C1CNCCN1 [PIPERAZINE] showed an inhibition at 20000 µM of 5.42%.
